In patent publication US20260285850A1, “SUBSTITUTED OXAZOLIDINONES AND IMIDAZOLINONES AS HERBICIDES” (FMC CORPORATION, priority 2023, published 2026):

What was measured:
Format in all cases: in vivo
[1] = test system: barnyardgrass (Echinochloa crus-galli); assay: Test A preemergence soil spray, visual injury rating 0-100; details: 10 days
How it was run: (§1)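 Rating: visual, day 10, untreated plants as reference, 0 no effect to 100 full control. Plants were in loam-sand and were treated either preemergence via directed soil spray or postemergence at the one- to two-leaf stage.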

[2] = test system: blackgrass (Alopecurus myosuroides); assay: as above; details: 10 days
How it was run: as §1

corn (Zea mays) [3] = assay: as above; details: 10 days
How it was run: as §1

[4] = test system: green foxtail (Setaria viridis); assay: as above; details: 10 days
How it was run: as §1

kochia (Bassia scoparia) [5] = assay: as above; details: 10 days
How it was run: as §1

[6] = test system: oat, wild (wild oat, Avena fatua); assay: as above; details: 10 days
How it was run: as §1

[7] = test system: palmer (palmer amaranth, palmer pigweed, Amaranthus palmeri); assay: as above; details: 10 days
How it was run: as §1

[8] = test system: ragweed (common ragweed, Ambrosia artemisiifolia); assay: as above; details: 10 days
How it was run: as §1

[9] = test system: ryegrass, Italian (italian ryegrass, Lolium multiflorum); assay: as above; details: 10 days
How it was run: as §1

soybean (Glycine max) [10] = assay: as above; details: 10 days
How it was run: as §1

[11] = test system: wheat (Triticum aestivum); assay: as above; details: 10 days
How it was run: as §1

[12] = test system: barnyardgrass (Echinochloa crus-galli); assay: Test A postemergence application, visual injury rating 0-100
How it was run: as §1

[13] = test system: blackgrass (Alopecurus myosuroides); assay: as above
How it was run: as §1

corn (Zea mays) [14] = assay: as above
How it was run: as §1

[15] = test system: galium (catchweed bedstraw, Galium aparine); assay: as above
How it was run: as §1

[16] = test system: green foxtail (Setaria viridis); assay: as above
How it was run: as §1

[17] = test system: horseweed (Erigeron canadensis); assay: as above
How it was run: as §1

kochia (Bassia scoparia) [18] = assay: as above
How it was run: as §1

[19] = test system: oat, wild (wild oat, Avena fatua); assay: as above
How it was run: as §1

[20] = test system: palmer (palmer amaranth, palmer pigweed, Amaranthus palmeri); assay: as above
How it was run: as §1

[21] = test system: ragweed (common ragweed, Ambrosia artemisiifolia); assay: as above
How it was run: as §1

[22] = test system: ryegrass, Italian (italian ryegrass, Lolium multiflorum); assay: as above
How it was run: as §1

soybean (Glycine max) [23] = assay: as above
How it was run: as §1

[24] = test system: wheat (Triticum aestivum); assay: as above
How it was run: as §1

[25] = test system: barnyardgrass (Echinochloa crusgalli); assay: Test B flooded paddy test, visual plant response rating 0-100; details: 250 g ai/ha, Flood, applied to paddy water, evaluated after 13 days
How it was run: (§2)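 Compounds applied to standing paddy water (3 cm above soil, maintained for the test duration) on 2-leaf-stage plants; visual rating vs controls at 13 days, greenhouse.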

[26] = test system: ducksalad (Heteranthera limosa); assay: as above; details: 250 g ai/ha, Flood, applied to paddy water, evaluated after 13 days
How it was run: as §2

rice (Oryza sativa) = assay: as above; details: 250 g ai/ha, Flood, applied to paddy water, evaluated after 13 days
How it was run: as §2

[27] = test system: sedge, umbrella (small-flower umbrella sedge, Cyperus difformis); assay: as above; details: 250 g ai/ha, Flood, applied to paddy water, evaluated after 13 days
How it was run: as §2

[28] = 62 g ai/ha, 0 = no effect, 100 = complete control
[29] = 62 g ai/ha, postemergence, 10 days, 0 = no effect, 100 = complete control
[30] = Postemergence, 16 g ai/ha, greenhouse 10 days, 0 no effect, 100 complete control

For COC(=O)C1C=CC(NC(=O)C2(C)CN(c3cc(Cl)c(F)c(Cl)c3)C(=O)O2)C1 (stereo not shown) [Compound 150], the “Barnyardgrass plant response rating” value ([1]; 16 g ai/ha, 0 to 100 scale) was 0, the “Barnyardgrass plant response rating (0-100)” value [1, 28] was 90 and the “Blackgrass plant response rating” value ([2]; 16 g ai/ha, 0 to 100 scale) was 0. The “Blackgrass plant response rating (0-100)” value [2, 28] was 50, the “Corn plant response rating” value (corn (Zea mays) [3]; 16 g ai/ha, 0 to 100 scale) was 0 and the “Corn plant response rating (0-100)” value (corn (Zea mays) [3]; [28]) was 70. The “Foxtail, Green plant response rating” value ([4]; 16 g ai/ha, 0 to 100 scale) was 0, the “Foxtail, Green plant response rating (0-100)” value [4, 28] was 90 and the “Kochia plant response rating” value (kochia (Bassia scoparia) [5]; 16 g ai/ha, 0 to 100 scale) was 20. The “Kochia plant response rating (0-100)” value (kochia (Bassia scoparia) [5]; [28]) was 90, the “Oat, Wild plant response rating” value ([6]; 16 g ai/ha, 0 to 100 scale) was 0 and the “Oat, Wild plant response rating (0-100)” value [6, 28] was 10. For the same compound, the “Pigweed, Palmer plant response rating” value ([7]; 16 g ai/ha, 0 to 100 scale) was 10, the “Pigweed, Palmer plant response rating (0-100)” value [7, 28] was 90 and the “Ragweed plant response rating” value ([8]; 16 g ai/ha, 0 to 100 scale) was 0. The “Ragweed plant response rating (0-100)” value [8, 28] was 0, the “Ryegrass, Italian plant response rating” value ([9]; 16 g ai/ha, 0 to 100 scale) was 10 and the “Ryegrass, Italian plant response rating (0-100)” value [9, 28] was 50. For the same compound, the “Soybean plant response rating” value (soybean (Glycine max) [10]; 16 g ai/ha, 0 to 100 scale) was 0, the “Soybean plant response rating (0-100)” value (soybean (Glycine max) [10]; [28]) was 0 and the “Wheat plant response rating” value ([11]; 16 g ai/ha, 0 to 100 scale) was 0. The “Wheat plant response rating (0-100)” value [11, 28] was 80, the “Barnyardgrass plant response rating (0-100)” value [12, 29] was 100 and the “Barnyardgrass plant response rating (0 to 100 scale)” value [12, 30] was 90. The “Blackgrass plant response rating (0-100)” value [13, 29] was 90, the “Blackgrass plant response rating (0 to 100 scale)” value [13, 30] was 80 and the “Corn plant response rating (0-100)” value (corn (Zea mays) [14]; [29]) was 100. The “Corn plant response rating (0 to 100 scale)” value (corn (Zea mays) [14]; [30]) was 100, the “Galium plant response rating (0-100)” value [15, 29] was 80 and the “Galium plant response rating (0 to 100 scale)” value [15, 30] was 70. The “Foxtail, Green plant response rating (0-100)” value [16, 29] was 90, the “Foxtail, Green plant response rating (0 to 100 scale)” value [16, 30] was 20 and the “Horseweed plant response rating (0-100)” value [17, 29] was 60. For the same compound, the “Horseweed plant response rating (0 to 100 scale)” value [17, 30] was 20, the “Kochia plant response rating (0-100)” value (kochia (Bassia scoparia) [18]; [29]) was 70 and the “Kochia plant response rating (0 to 100 scale)” value (kochia (Bassia scoparia) [18]; [30]) was 20. For the same compound, the “Oat, Wild plant response rating (0-100)” value [19, 29] was 90, the “Oat, Wild plant response rating (0 to 100 scale)” value [19, 30] was 60 and the “Pigweed, Palmer plant response rating (0-100)” value [20, 29] was 60. For the same compound, the “Pigweed, Palmer plant response rating (0 to 100 scale)” value [20, 30] was 40, the “Ragweed plant response rating (0-100)” value [21, 29] was 50 and the “Ragweed plant response rating (0 to 100 scale)” value [21, 30] was 0. The “Ryegrass, Italian plant response rating (0-100)” value [22, 29] was 80, the “Ryegrass, Italian plant response rating (0 to 100 scale)” value [22, 30] was 50 and the “Soybean plant response rating (0-100)” value (soybean (Glycine max) [23]; [29]) was 70. The “Soybean plant response rating (0 to 100 scale)” value (soybean (Glycine max) [23]; [30]) was 60, the “Wheat plant response rating (0-100)” value [24, 29] was 90 and the “Wheat plant response rating (0 to 100 scale)” value [24, 30] was 70. The “Plant response rating, Barnyardgrass (0 to 100 scale, 0 is no effect and 100 is complete control)” value [25] was 65, the “Plant response rating, Ducksalad (0 to 100 scale, 0 is no effect and 100 is complete control)” value [26] was 85 and the “Plant response rating, Rice (0 to 100 scale, 0 is no effect and 100 is complete control)” value (rice (Oryza sativa)) was 30. For the same compound, the “Plant response rating, Sedge, Umbrella (0 to 100 scale, 0 is no effect and 100 is complete control)” value [27] was 75.
